Legend:
[1] = test system: Firefly luciferase HCV replicon cells (3-1); experiment: Replicon assay (firefly luciferase HCV replicon); type: cell-based; conditions: Hepatitis C virus, 72 h; Huh7-derived luciferase HCV replicon cells, 3 days culture with compound, Steady-Glo luminescence
Description: (§1) A construct was prepared in which a luciferase gene derived from firefly was introduced as a reporter gene in HCV-RNA to assay the number of copies of HCV-RNA. The luciferase gene was introduced in the form of fusing with neomycin-resistance gene directly below the IRES (Internal Ribosome Entry Site) of the HCV gene in accordance with the method of Krieger, et al. (J. Virol. 75:4614). After synthesizing this RNA in vitro, it was introduced into Huh7 cell by electroporation and isolated as G418-resistant clone. Firefly luciferase HCV replicon cells (3-1) were suspended in Dulbecco's MEM (Gibco cat. no. 10569-010) containing 5% fetal bovine serum (Hyclone cat. no. SH30071.03), inoculated into the wells of a 96-well plate at 5000 cells/well and then cultured overnight at 37° C. and 5% CO2. Approximately 20 hours later, the diluted test compound was added at 10 μl per well followed by culturing for another 3 days. Two series of assay plates were prepared, and the assay was carried out using a white plate for one series and a clear plate for the other series. Following completion of culturing, the white plate was used for the Steady-Glo Luciferase Assay System (Promega cat. no. E2520). Namely, after adding 100 μl of reagent per well, mixing by a pipette 3 to 4 times and then allowing to stand for 5 minutes, luminescence was measured with the 1450 MicroBeta TRILUX (Wallac). Values obtained in the absence of cell addition were used as background values and subtracted from all values to calculate the IC50 (50% inhibitory concentration) of the drug based on a value of 0% inhibition for the value in the absence of addition of test compound.

in vitro = type: cell-based; conditions: human; replicon cells, 3 days culture with compound, Cell Counting Kit 8, absorbance 450 nm; read-out: Cytotoxicity CC50
Description: as §1
The Cell Counting Kit 8 (Dojindo cat. no. CK04) was used to determine the cytotoxicity. Namely, 10 μl of Cell Counting Kit 8 were added to a clear plate and incubated for 30 to 60 minutes at 37° C. Absorbance at a wavelength of 450 nm and a control wavelength of 630 nm was measured with a 96-well plate reader. Values in the absence of cell addition were used as background values and subtracted from all values to calculate the CC50 (50% cell inhibitory concentration) of the drug based on a value of 0% inhibition for the value in the absence of addition of drug.

| Compound | IC50 [1] [µM] | CC50 (in vitro) [µM] |
| --- | --- | --- |
| CCCCCCCC(=O)CCCCCC/C=C/[C@H](C(=O)N[C@@H](Cc1ccc(Nc2ccccc2)cc1)C(=O)O)[C@@](O)(CC(=O)O)C(=O)O [Compound 69] | 0.002 | > 1 |
| CCCCCCCC(=O)CCCCCC/C=C/[C@H](C(=O)N[C@@H](Cc1ccc(Oc2ccc(C#N)cc2)cc1)C(=O)O)[C@@](O)(CC(=O)O)C(=O)O [Compound 70] | 0.011 | > 1 |
| CCCCCCCC(=O)CCCCCC/C=C/[C@H](C(=O)N[C@@H](Cc1ccc(-c2ccc(C#N)cc2)cc1)C(=O)O)[C@@](O)(CC(=O)O)C(=O)O [Compound 71] | 0.004 | > 1 |
| CCCCCCCC(=O)CCCCCC/C=C/[C@H](C(=O)N[C@@H](Cc1ccc(N2CCOCC2)cc1)C(=O)O)[C@@](O)(CC(=O)O)C(=O)O [Compound 72] | 0.006 | > 1 |
| CCCCCCCC(=O)CCCCCC/C=C/[C@H](C(=O)N[C@@H](Cc1ccc(-c2ccc(OC)nc2)cc1)C(=O)O)[C@@](O)(CC(=O)O)C(=O)O [Compound 73] | 0.002 | > 1 |
| CCCCCCCC(=O)CCCCCC/C=C/[C@H](C(=O)N[C@@H](Cc1ccc(-c2ccc(S(=O)(=O)N(C)C)cc2)cc1)C(=O)O)[C@@](O)(CC(=O)O)C(=O)O [Compound 74] | 0.135 | > 1 |
| CCCCCCCC(=O)CCCCCC/C=C/[C@H](C(=O)N[C@@H](Cc1ccc(N(C)c2ccccc2)cc1)C(=O)O)[C@@](O)(CC(=O)O)C(=O)O [Compound 75] | 0.006 | > 1 |
| CCCCCCCC(=O)CCCCCC/C=C/[C@H](C(=O)N[C@@H](Cc1ccc(-c2cncnc2)cc1)C(=O)O)[C@@](O)(CC(=O)O)C(=O)O [Compound 76] | 0.013 | > 1 |
| CCCCCCCC(=O)CCCCCC/C=C/[C@H](C(=O)N[C@@H](Cc1ccc(-c2ccc(SC)cc2)cc1)C(=O)O)[C@@](O)(CC(=O)O)C(=O)O [Compound 77] | 0.007 | > 1 |
| CCCCCCCC(=O)CCCCCC/C=C/[C@H](C(=O)N[C@@H](Cc1ccc(-c2cncc(OC)c2)cc1)C(=O)O)[C@@](O)(CC(=O)O)C(=O)O [Compound 78] | 0.003 | > 1 |
| CCCCCCCC(=O)CCCCCC/C=C/[C@H](C(=O)N[C@@H](Cc1ccc(-c2c(C)noc2C)cc1)C(=O)O)[C@@](O)(CC(=O)O)C(=O)O [Compound 79] | 0.104 | > 1 |
| CCCCCCCC(=O)CCCCCC/C=C/[C@H](C(=O)N[C@@H](Cc1ccc(-c2ccc(S(C)(=O)=O)cc2)cc1)C(=O)O)[C@@](O)(CC(=O)O)C(=O)O [Compound 80] | 0.071 | > 1 |
| CCCCCCCC(=O)CCCCCC/C=C/[C@H](C(=O)N[C@@H](Cc1ccc(-c2cnc(OC)nc2)cc1)C(=O)O)[C@@](O)(CC(=O)O)C(=O)O [Compound 81] | 0.008 | > 1 |
| CCCCCCCC(=O)CCCCCC/C=C/[C@H](C(=O)N[C@@H](Cc1ccc(OCCCN)cc1)C(=O)O)[C@@](O)(CC(=O)O)C(=O)O [Compound 82] | 0.039 | > 1 |
| CCCCCCCC(=O)CCCCCC/C=C/[C@H](C(=O)N[C@@H](Cc1ccc(OC2CCN(C)CC2)cc1)C(=O)O)[C@@](O)(CC(=O)O)C(=O)O [Compound 83] | 0.108 | > 1 |
| CCCCCCCC(=O)CCCCCC/C=C/[C@H](C(=O)N[C@@H](Cc1ccc(OCCCN(C)C)cc1)C(=O)O)[C@@](O)(CC(=O)O)C(=O)O [Compound 84] | 0.043 | > 1 |
| CCCCCCCC(=O)CCCCCC/C=C/[C@H](C(=O)N[C@@H](Cc1ccc(OCc2cccnc2)cc1)C(=O)O)[C@@](O)(CC(=O)O)C(=O)O [Compound 85] | 0.001 | > 1 |
| CCCCCCCC(=O)CCCCCC/C=C/[C@H](C(=O)N[C@@H](Cc1ccc(OCCN2CCOCC2)cc1)C(=O)O)[C@@](O)(CC(=O)O)C(=O)O [Compound 86] | 0.007 | > 1 |
| CCCCCCCC(=O)CCCCCC/C=C/[C@H](C(=O)N[C@@H](Cc1ccc(OCCN2CCNCC2)cc1)C(=O)O)[C@@](O)(CC(=O)O)C(=O)O [Compound 87] | 0.038 | > 1 |
| CCCCCCCC(=O)CCCCCC/C=C/[C@H](C(=O)N[C@@H](Cc1ccc(OCCCNCc2cccnc2)cc1)C(=O)O)[C@@](O)(CC(=O)O)C(=O)O [Compound 88] | 0.018 | > 1 |

| Compound | IC50 [1] [µM] | CC50 (in vitro) [µM] |
| --- | --- | --- |
| CCCCCCCC(=O)CCCCCC/C=C/[C@H](C(=O)N[C@@H](Cc1ccc(OCCCN2CCN(C)CC2)cc1)C(=O)O)[C@@](O)(CC(=O)O)C(=O)O [Compound 89] | 0.029 | > 1 |
| CCCCCCCC(=O)CCCCCC/C=C/[C@H](C(=O)N[C@@H](Cc1ccc(N=[N+]=[N-])cc1)C(=O)O)[C@@](O)(CC(=O)O)C(=O)O [Compound 90] | 0.006 | > 1 |
| CCCCCCCC(=O)CCCCCC/C=C/[C@H](C(=O)N[C@@H](Cc1ccc(CNC(=O)OCC2c3ccccc3-c3ccccc32)cc1)C(=O)O)[C@@](O)(CC(=O)O)C(=O)O [Compound 91] | 0.008 | > 1 |
| CCCCCCCC(=O)CCCCCC/C=C/[C@H](C(=O)N[C@@H](Cc1ccc(NS(C)(=O)=O)cc1)C(=O)O)[C@@](O)(CC(=O)O)C(=O)O [Compound 92] | 0.002 | > 1 |
| CCCCCCCC(=O)CCCCCC/C=C/[C@H](C(=O)N[C@@H](Cc1ccc(NC(C)=O)cc1)C(=O)O)[C@@](O)(CC(=O)O)C(=O)O [Compound 93] | 0.012 | > 1 |
| CCCCCCCC(=O)CCCCCC/C=C/[C@H](C(=O)N[C@@H](Cc1ccc(CN)cc1)C(=O)O)[C@@](O)(CC(=O)O)C(=O)O [Compound 94] | 0.28 | > 1 |
| CCCCCCCC(=O)CCCCCC/C=C/[C@H](C(=O)N[C@@H](Cc1ccc(NC(=N)N)cc1)C(=O)O)[C@@](O)(CC(=O)O)C(=O)O [Compound 95] | 0.395 | > 1 |
| CCCCCCCC(=O)CCCCCC/C=C/[C@H](C(=O)N[C@@H](Cc1ccc(-n2cc(C(=O)OCC)nn2)cc1)C(=O)O)[C@@](O)(CC(=O)O)C(=O)O [Compound 96] | 0.009 | > 1 |
| CCCCCCCC(=O)CCCCCC/C=C/[C@H](C(=O)N[C@@H](Cc1cccnc1)C(=O)O)[C@@](O)(CC(=O)O)C(=O)O [Compound 97] | 0.302 | > 1 |
| CC(C)CCOc1ccc(C[C@H](NC(=O)[C@@H](/C=C/CCCCCCC(=O)CCCCCCF)[C@@](O)(CC(=O)O)C(=O)O)C(=O)O)cc1 [Compound 98] | 0.021 | > 1 |
| COCCCCCCC(=O)CCCCCC/C=C/[C@H](C(=O)N[C@@H](Cc1ccc(OCCC(C)C)cc1)C(=O)O)[C@@](O)(CC(=O)O)C(=O)O [Compound 99] | 0.056 | > 1 |
| CCCCCCCCCC(=O)CCCC/C=C/[C@H](C(=O)N[C@@H](Cc1ccc(-c2ccccc2)cc1)C(=O)O)[C@@](O)(CC(=O)O)C(=O)O [Compound 100] | 0.092 | > 1 |
| CCCCCCCCCC(=O)CCCC/C=C/[C@H](C(=O)N[C@@H](Cc1ccc(Oc2ccccc2)cc1)C(=O)O)[C@@](O)(CC(=O)O)C(=O)O [Compound 101] | 0.046 | > 1 |
| CCCCCCC(=O)CCCCCC/C=C/[C@H](C(=O)N[C@@H](Cc1ccc(-c2ccccc2)cc1)C(=O)O)[C@@](O)(CC(=O)O)C(=O)O [Compound 102] | 0.005 | > 1 |
| CCCCCCC(=O)CCCCCC/C=C/[C@H](C(=O)N[C@@H](Cc1ccc(Oc2ccccc2)cc1)C(=O)O)[C@@](O)(CC(=O)O)C(=O)O [Compound 103] | 0.011 | > 1 |
| CCCC#CCOc1ccc(C[C@H](NC(=O)[C@@H](/C=C/CCCCCCC(=O)CCCCCCC)[C@@](O)(CC(=O)O)C(=O)O)C(=O)O)cc1 [Compound 104] | 0.001 | > 1 |
| C#CCOc1ccc(C[C@H](NC(=O)[C@@H](/C=C/CCCCCCC(=O)CCCCCCC)[C@@](O)(CC(=O)O)C(=O)O)C(=O)O)cc1 [Compound 105] | 0.003 | > 1 |
| C#CCCCOc1ccc(C[C@H](NC(=O)[C@@H](/C=C/CCCCCCC(=O)CCCCCCC)[C@@](O)(CC(=O)O)C(=O)O)C(=O)O)cc1 [Compound 106] | 0.001 | > 1 |
| CC#CCCOc1ccc(C[C@H](NC(=O)[C@@H](/C=C/CCCCCCC(=O)CCCCCCC)[C@@](O)(CC(=O)O)C(=O)O)C(=O)O)cc1 [Compound 107] | 0.001 | > 1 |
| CCCCCCCC(=O)CCCCCC/C=C/[C@H](C(=O)N[C@@H](Cc1ccc(OCC#CCN(CC)CC)cc1)C(=O)O)[C@@](O)(CC(=O)O)C(=O)O [Compound 108] | 0.003 | > 1 |

— patent publication US7378446B2, “Compound having anti-HCV activity and process for producing the same” (Chugai Seiyaku Kabushiki Kaisha, priority 2003, dated 2008)
